Test results taken from US20260022142A1, “MACROCYCLIC IMMUNOMODULATORS” (Bristol-Myers Squibb Company, priority 2022, published 2026).
Bridge positions count the residues as written; N and C are the ends. Square brackets hold non-standard residues; d marks the D form. Peptide text beside a SMILES is read from it. * marks the point of attachment. Phe(4-CH2CH2COOH) = N[C@@H](Cc1ccc(CCC(=O)O)cc1)C(=O)O; Phe(4-COOH) = N[C@@H](Cc1ccc(C(=O)O)cc1)C(=O)O; Bip = N[C@@H](Cc1ccc(-c2ccccc2)cc1)C(=O)O; Phe(4-NH2) = Nc1ccc(C[C@H](N)C(=O)O)cc1; Phe(3-Me) = Cc1cccc(C[C@H](N)C(=O)O)c1; Val(3-OH) = CC(C)(O)[C@H](N)C(=O)O; dAla(cPr) = N[C@H](CC1CC1)C(=O)O; 4Pal = N[C@@H](Cc1ccncc1)C(=O)O; Cha = N[C@@H](CC1CCCCC1)C(=O)O; Cit = NC(=O)NCCC[C@H](N)C(=O)O; dCba = N[C@H](CC1CCC1)C(=O)O; Carboxymethyl = O=C(O)C*; Orn = NCCC[C@H](N)C(=O)O; Aun = NCCCCCCCCCCC(=O)O; Dab = NCC[C@H](N)C(=O)O; Dap = NC[C@H](N)C(=O)O; AEEA = NCCOCCOCC(=O)O; Ac3c = NC1(C(=O)O)CC1

Target: T1, PD-1/PD-L1 interaction (PE-labeled human PD-L1-Ig binding to Jurkat cell line over-expressing human PD-1) (Homo sapiens, UniProt Q15116)
T1 construct: expressed in transfected cells; host or cells: Jurkat
Experiment: Jurkat-PD-1 Cell Binding High-Content Screening Assay (CBA)
Assay type: cell-based
Details: Jurkat cell line over-expressing human PD-1; PE-labeled PD-L1-Ig 20 nM final; read-out: Jurkat hPD1-PDL1 IC50
Method in brief: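 Jurkat cells stably over-expressing human PD-1 were seeded in DMEM with 10% fetal calf serum and pre-incubated with compound for 2 h at 37° C. PE-labeled human PD-L1-Ig was then added at 20 nM final for 1 hour, after which cells were fixed with paraformaldehyde, Hoechst-stained and imaged by high-content microscopy.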

T1 sequence (Q15116 25-288): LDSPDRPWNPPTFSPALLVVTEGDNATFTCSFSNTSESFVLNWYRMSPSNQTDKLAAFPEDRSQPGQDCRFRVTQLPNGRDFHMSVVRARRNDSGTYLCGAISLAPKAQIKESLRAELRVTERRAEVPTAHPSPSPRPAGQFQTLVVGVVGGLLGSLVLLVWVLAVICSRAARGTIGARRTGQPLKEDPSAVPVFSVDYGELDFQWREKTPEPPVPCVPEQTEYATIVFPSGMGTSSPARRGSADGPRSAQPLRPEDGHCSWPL

SMILES	IC50
Cc1cccc(C[C@@H]2NC(=O)[C@H](CC(=O)O)NC(=O)[C@H](Cc3ccc(OCC(=O)O)cc3)NC(=O)[C@H](CN)NC(=O)CSC[C@@H](C(=O)NC3(C(=O)N[C@@H](CCCN)C(=O)N[C@H](CO)C(=O)NCCCCCCCCCCC(=O)O)CC3)NC(=O)[C@H]([C@@H](C)O)NC(=O)[C@H](C(C)C)NC(=O)[C@H](CC3CCCCC3)NC(=O)[C@H](CCN)NC(=O)[C@@H](CC(C)C)NC(=O)[C@H](CCCN)NC(=O)[C@H](CCCNC(N)=O)NC(=O)[C@H](Cc3ccc(-c4ccccc4)cc3)NC(=O)[C@H](C(C)C)NC2=O)c1 [Compound 2015] ({CH2CO}-[Dap]Y(Carboxymethyl)D[Phe(3-Me)]V[Bip][Cit][Orn][dL][Dab][Cha]VTC[Ac3c][Orn][dS][Aun]-OH; thioether N-14)	0.0198 µM
Cc1cccc(C[C@@H]2NC(=O)[C@H](CC(=O)O)NC(=O)[C@H](Cc3ccc(OCC(=O)O)cc3)NC(=O)[C@H](CN)NC(=O)CSC[C@@H](C(=O)N[C@@H](C)C(=O)N[C@@H](CCCN)C(=O)N[C@H](CO)C(=O)NCCCCCCCCCCC(=O)O)NC(=O)[C@H]([C@@H](C)O)NC(=O)[C@H](C(C)C)NC(=O)[C@H](CC3CCCCC3)NC(=O)[C@H](CCN)NC(=O)[C@@H](CC(C)C)NC(=O)[C@H](CCCN)NC(=O)[C@H](CCCNC(=N)N)NC(=O)[C@H](Cc3ccc(-c4ccccc4)cc3)NC(=O)[C@H](C(C)C)NC2=O)c1 [Compound 2016] ({CH2CO}-[Dap]Y(Carboxymethyl)D[Phe(3-Me)]V[Bip]R[Orn][dL][Dab][Cha]VTCA[Orn][dS][Aun]-OH; thioether N-14)	0.0176 µM
Cc1cccc(C[C@@H]2NC(=O)[C@H](CC(=O)O)NC(=O)[C@H](Cc3ccc(OCC(=O)O)cc3)NC(=O)[C@H](CN)NC(=O)CSC[C@@H](C(=O)N[C@@H](CC(=O)O)C(=O)NCCOCCOCC(=O)NCCCCCCCCCCC(=O)O)NC(=O)[C@H](CCCN)NC(=O)[C@H](C(C)C)NC(=O)[C@H](CC3CCCCC3)NC(=O)[C@H](CCN)NC(=O)[C@@H](CC(C)C)NC(=O)[C@H](CCCN)NC(=O)[C@H](CCCNC(N)=O)NC(=O)[C@H](Cc3ccc(-c4ccccc4)cc3)NC(=O)[C@H](C(C)C)NC2=O)c1 [Compound 2020] ({CH2CO}-[Dap]Y(Carboxymethyl)D[Phe(3-Me)]V[Bip][Cit][Orn][dL][Dab][Cha]V[Orn]CD[AEEA][Aun]-OH; thioether N-14)	0.0105 µM
Cc1cccc(C[C@@H]2NC(=O)[C@H](CC(=O)O)NC(=O)[C@H](Cc3ccc(OCC(=O)O)cc3)NC(=O)[C@H](Cc3ccncc3)NC(=O)CSC[C@@H](C(=O)N[C@@H](CCN)C(=O)NCCOCCOCC(=O)NCCCCCCCCCCC(=O)O)NC(=O)[C@H](CN)NC(=O)[C@H](C(C)(C)O)NC(=O)[C@H](CC3CCCCC3)NC(=O)[C@H](CCN)NC(=O)[C@@H](CC(C)C)NC(=O)[C@H](CCCN)NC(=O)[C@H](Cc3ccc(OCC(=O)O)cc3)NC(=O)[C@H](Cc3ccc(-c4ccccc4)cc3)NC(=O)[C@H](Cc3ccc(OCC(=O)O)cc3)NC2=O)c1 [Compound 2022] ({CH2CO}-[4Pal]Y(Carboxymethyl)D[Phe(3-Me)]Y(Carboxymethyl)[Bip]Y(Carboxymethyl)[Orn][dL][Dab][Cha][Val(3-OH)][Dap]C[Dab][AEEA][Aun]-OH; thioether N-14)	0.0595 µM
Cc1cccc(C[C@@H]2NC(=O)[C@H](CC(=O)O)NC(=O)[C@H](Cc3ccc(OCC(=O)O)cc3)NC(=O)[C@H](CN)NC(=O)CSC[C@@H](C(=O)N[C@@H](CCN)C(=O)NCCOCCOCC(=O)NCCCCCCCCCCC(=O)O)NC(=O)[C@H](CO)NC(=O)[C@H](C(C)(C)O)NC(=O)[C@H](CC3CCCCC3)NC(=O)[C@H](CCN)NC(=O)[C@@H](CC(C)C)NC(=O)[C@H](CCCN)NC(=O)[C@H](Cc3ccc(OCC(=O)O)cc3)NC(=O)[C@H](Cc3ccc(-c4ccccc4)cc3)NC(=O)[C@H](Cc3ccc(OCC(=O)O)cc3)NC2=O)c1 [Compound 2023] ({CH2CO}-[Dap]Y(Carboxymethyl)D[Phe(3-Me)]Y(Carboxymethyl)[Bip]Y(Carboxymethyl)[Orn][dL][Dab][Cha][Val(3-OH)]SC[Dab][AEEA][Aun]-OH; thioether N-14)	0.0102 µM
Cc1cccc(C[C@@H]2NC(=O)[C@H](CC(=O)O)NC(=O)[C@H](Cc3ccc(OCC(=O)O)cc3)NC(=O)[C@H](CN)NC(=O)CSC[C@@H](C(=O)N[C@@H](CCN)C(=O)NCCCCCCCCCCC(=O)O)NC(=O)[C@H](CCCCN)NC(=O)[C@H](C(C)C)NC(=O)[C@H](CC3CCCCC3)NC(=O)[C@H](CCN)NC(=O)[C@@H](CC3CCC3)NC(=O)[C@H](CCCN)NC(=O)[C@H](C(C)C)NC(=O)[C@H](Cc3ccc(-c4ccccc4)cc3)NC(=O)[C@H](C(C)C)NC2=O)c1 [Compound 2027] ({CH2CO}-[Dap]Y(Carboxymethyl)D[Phe(3-Me)]V[Bip]V[Orn][dCba][Dab][Cha]VKC[Dab][Aun]-OH; thioether N-14)	0.015 µM

The remaining lines, values ahead:

IC50	SMILES
0.0193 µM	Cc1cccc(C[C@@H]2NC(=O)[C@H](CC(=O)O)NC(=O)[C@H](Cc3ccc(OCC(=O)O)cc3)NC(=O)[C@H](CN)NC(=O)CSC[C@@H](C(=O)N[C@@H](CCN)C(=O)NCCOCCOCC(=O)NCCCCCCCCCCC(=O)O)NC(=O)[C@@H](CO)NC(=O)[C@H](C(C)C)NC(=O)[C@H](CC3CCCCC3)NC(=O)[C@H](CCN)NC(=O)[C@@H](CC(C)C)NC(=O)[C@H](CCCN)NC(=O)[C@H](C(C)C)NC(=O)[C@H](Cc3ccc(-c4ccccc4)cc3)NC(=O)[C@H](Cc3ccc(O)cc3)NC2=O)c1 [Compound 2017] ({CH2CO}-[Dap]Y(Carboxymethyl)D[Phe(3-Me)]Y[Bip]V[Orn][dL][Dab][Cha]V[dS]C[Dab][AEEA][Aun]-OH; thioether N-14)
0.0404 µM	CC(C)C[C@@H]1NC(=O)[C@H](Cc2c[nH]c3ccccc23)NC(=O)[C@H](CC(=O)O)NC(=O)[C@H](Cc2ccc(OCC(=O)O)cc2)NC(=O)[C@H](CN)NC(=O)CSC[C@@H](C(=O)N[C@@H](CCN)C(=O)NCCCCCCCCCCC(=O)O)NC(=O)[C@@H](CO)NC(=O)[C@H](C(C)C)NC(=O)[C@H](CC2CCCCC2)NC(=O)[C@H](CCN)NC(=O)[C@@H](CC(C)C)NC(=O)[C@H](CCCN)NC(=O)[C@H](C(C)C)NC(=O)[C@H](Cc2ccc(-c3ccccc3)cc2)NC1=O [Compound 2018] ({CH2CO}-[Dap]Y(Carboxymethyl)DWL[Bip]V[Orn][dL][Dab][Cha]V[dS]C[Dab][Aun]-OH; thioether N-14)
0.0499 µM	CC(C)C[C@@H]1NC(=O)[C@H](Cc2c[nH]c3ccccc23)NC(=O)[C@H](CC(=O)O)NC(=O)[C@H](Cc2ccc(C(=O)O)cc2)NC(=O)[C@H](Cc2ccc(CCC(=O)O)cc2)NC(=O)CSC[C@@H](C(=O)N[C@@H](CCN)C(=O)NCCCCCCCCCCC(=O)O)NC(=O)[C@@H](CO)NC(=O)[C@H](C(C)C)NC(=O)[C@H](CC2CCCCC2)NC(=O)[C@H](CCN)NC(=O)[C@@H](CC(C)C)NC(=O)[C@H](CCCN)NC(=O)[C@H](C(C)C)NC(=O)[C@H](Cc2ccc(-c3ccccc3)cc2)NC1=O [Compound 2019] ({CH2CO}-[Phe(4-CH2CH2COOH)][Phe(4-COOH)]DWL[Bip]V[Orn][dL][Dab][Cha]V[dS]C[Dab][Aun]-OH; thioether N-14)
0.0308 µM	Cc1cccc(C[C@@H]2NC(=O)[C@H](CC(=O)O)NC(=O)[C@H](Cc3ccc(OCC(=O)O)cc3)NC(=O)[C@H](CN)NC(=O)CSC[C@@H](C(=O)N[C@@H](CC(=O)O)C(=O)NCCOCCOCC(=O)NCCCCCCCCCCC(=O)O)NC(=O)[C@@H](CO)NC(=O)[C@H](C(C)C)NC(=O)[C@H](CC3CCCCC3)NC(=O)[C@H](CCN)NC(=O)[C@@H](CC(C)C)NC(=O)[C@H](CCCN)NC(=O)[C@H](CCCNC(N)=O)NC(=O)[C@H](Cc3ccc(-c4ccccc4)cc3)NC(=O)[C@H](C(C)C)NC2=O)c1 [Compound 2021] ({CH2CO}-[Dap]Y(Carboxymethyl)D[Phe(3-Me)]V[Bip][Cit][Orn][dL][Dab][Cha]V[dS]CD[AEEA][Aun]-OH; thioether N-14)
0.0205 µM	Cc1cccc(C[C@@H]2NC(=O)[C@H](CC(=O)O)NC(=O)[C@H](Cc3ccc(OCC(=O)O)cc3)NC(=O)[C@H](CN)NC(=O)CSC[C@@H](C(=O)N[C@@H](CCN)C(=O)NCCCCCCCCCCC(N)=O)NC(=O)[C@H]([C@@H](C)O)NC(=O)[C@H](C(C)C)NC(=O)[C@H](CC3CCCCC3)NC(=O)[C@H](CCN)NC(=O)[C@@H](CC(C)C)NC(=O)[C@H](CCCN)NC(=O)[C@H](CCCNC(=N)N)NC(=O)[C@H](Cc3ccc(-c4ccccc4)cc3)NC(=O)[C@H](C(C)C)NC2=O)c1 [Compound 2025] ({CH2CO}-[Dap]Y(Carboxymethyl)D[Phe(3-Me)]V[Bip]R[Orn][dL][Dab][Cha]VTC[Dab][Aun]-NH2; thioether N-14)
0.0102 µM	Cc1cccc(C[C@@H]2NC(=O)[C@H](CC(=O)O)NC(=O)[C@H](Cc3ccc(OCC(=O)O)cc3)NC(=O)[C@H](CN)NC(=O)CSC[C@@H](C(=O)N[C@@H](CCN)C(=O)NCCCCCCCCCCC(=O)O)NC(=O)[C@H](CCCCN)NC(=O)[C@H](C(C)C)NC(=O)[C@H](CC3CCCCC3)NC(=O)[C@H](CCN)NC(=O)[C@@H](CC3CC3)NC(=O)[C@H](CCCN)NC(=O)[C@H](C(C)C)NC(=O)[C@H](Cc3ccc(-c4ccccc4)cc3)NC(=O)[C@H](C(C)C)NC2=O)c1 [Compound 2026] ({CH2CO}-[Dap]Y(Carboxymethyl)D[Phe(3-Me)]V[Bip]V[Orn][dAla(cPr)][Dab][Cha]VKC[Dab][Aun]-OH; thioether N-14)
0.0137 µM	CC(C)C[C@H]1NC(=O)[C@H](CCCN)NC(=O)[C@H](C(C)C)NC(=O)[C@H](Cc2ccc(-c3ccccc3)cc2)NC(=O)[C@H](C(C)C)NC(=O)[C@H](Cc2ccc(N)cc2)NC(=O)[C@H](CC(=O)O)NC(=O)[C@H](Cc2ccc(OCC(=O)O)cc2)NC(=O)[C@H](CN)NC(=O)CSC[C@@H](C(=O)N[C@@H](CCN)C(=O)NCCCCCCCCCCC(=O)O)NC(=O)[C@H](CCCCN)NC(=O)[C@H](C(C)C)NC(=O)[C@H](CC2CCCCC2)NC(=O)[C@H](CCN)NC1=O [Compound 2028] ({CH2CO}-[Dap]Y(Carboxymethyl)D[Phe(4-NH2)]V[Bip]V[Orn][dL][Dab][Cha]VKC[Dab][Aun]-OH; thioether N-14)
